Assay results published in US8030354B2, “Substituted biphenyl GPR40 modulators” (Amgen Inc., priority 2007, dated 2011).

The molecules below were run against GPR40 (Homo sapiens, UniProt O14842) (assay: Cell-based aequorin assay (CHO cells stably expressing GPR40 and aequorin)). Settings: activation of human GPR40, CHO cells, 0.01% HSA.
Design: expressed in transfected cells; host or cells: CHO cells stably transfected with GPR40 and aequorin
In short: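 CHO cells stably co-expressing GPR40 and aequorin, loaded with coelenterazine (1 ug/mL, 2 h, room temperature) in H/HBSS with 20 mM Hepes and 0.01% fatty acid-free HSA. Serially diluted compounds added; luminescence recorded over 20 s. EC50 from dose-response of maximum relative light units.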

Sequence of GPR40 (O14842 whole entry): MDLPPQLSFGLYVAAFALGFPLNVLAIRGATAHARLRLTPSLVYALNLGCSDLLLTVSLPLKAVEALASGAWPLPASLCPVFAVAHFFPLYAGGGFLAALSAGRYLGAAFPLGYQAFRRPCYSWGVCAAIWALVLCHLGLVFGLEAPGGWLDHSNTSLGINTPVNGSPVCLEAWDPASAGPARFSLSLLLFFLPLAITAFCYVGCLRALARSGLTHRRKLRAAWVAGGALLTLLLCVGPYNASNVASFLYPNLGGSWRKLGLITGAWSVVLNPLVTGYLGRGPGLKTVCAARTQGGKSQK

EC50 [nM] | Structure (SMILES)
1000 to 10000 | COc1ccc(F)c(-c2ccc(COc3cccc(C(CC(=O)O)C4CC4)c3)cc2CN2CCCC[C@@H]2C)c1 (single isomer, unassigned) [Example 66.75, (3S)-3-Cyclopropyl-3-(3-(((2′-fluoro-5′-(methyloxy)-2-(((2S)-2-methyl-1-piperidinyl)methyl)-1,1′-biphenyl-4-yl)methyl)oxy)phenyl)propanoic acid or (3R)-3-cyclopropyl-3-(3-(((2′-fluoro-5′-(methyloxy)-2-(((2S)-2-methyl-1-piperidinyl)methyl)-1,1′-biphenyl-4-yl)methyl)oxy)phenyl)propanoic acid]
100 to 1000 | COc1ccc(F)c(-c2ccc(COc3cccc(CC(C)C(=O)O)c3)cc2C2=CCCC2(C)C)c1 (single isomer, unassigned) [Example 62.1, (2R)-3-(3-(((2-(5,5-Dimethyl-1-cyclopenten-1-yl)-2′-fluoro-5′-(methyloxy)-1,1′-biphenyl-4-yl)methyl)oxy)phenyl)-2-methylpropanoic acid or (2S)-3-(3-(((2-(5,5-dimethyl-1-cyclopenten-1-yl)-2′-fluoro-5′-(methyloxy)-1,1′-biphenyl-4-yl)methyl)oxy)phenyl)-2-methylpropanoic acid]
1000 to 10000 | C=CC(CC(=O)O)c1cccc(OCc2ccc(-c3cc(OC)ccc3F)c(C(C)(C)C)c2)c1 (single isomer, unassigned) [Example 19, (3R)-3-(3-(((2-(1,1-Dimethylethyl)-2′-fluoro-5′-(methyloxy)-1,1′-biphenyl-4-yl)methyl)oxy)phenyl)-4-pentenoic acid or (3S)-3-(3-(((2-(1,1-dimethylethyl)-2′-fluoro-5′-(methyloxy)-1,1′-biphenyl-4-yl)methyl)oxy)phenyl)-4-pentenoic acid]
100 to 1000 | COc1ccc(F)c(-c2ccc(COc3cccc(CCC(=O)O)c3)cc2C2CCCC2(C)C)c1 (centres unmarked) [Example 61.1, 3-(3-(((2-(2,2-Dimethylcyclopentyl)-2′-fluoro-5′-(methyloxy)-1,1′-biphenyl-4-yl)methyl)oxy)phenyl)propanoic acid]
1000 to 10000 | COc1ccc(F)c(-c2ccc(COc3cccc([C@H](C)CC(=O)O)c3)cc2OCc2ccccc2)c1 (single isomer, unassigned) [Example 30, (3R)-3-(3-(((2′-Fluoro-5′-(methyloxy)-2-((phenylmethyl)oxy)-1,1′-biphenyl-4-yl)methyl)oxy)phenyl)butanoic acid or (3S)-3-(3-(((2′-fluoro-5′-(methyloxy)-2-((phenylmethyl)oxy)-1,1′-biphenyl-4-yl)methyl)oxy)phenyl)butanoic acid]
100 to 1000 | CO[C@@H](c1cc(COc2cccc([C@@H](CC(=O)O)C3CC3)c2)ccc1-c1ccccc1F)C(C)(C)C (single isomer, unassigned) [Example 66.32]
1000 to 10000 | CCC(CC(=O)O)c1cccc(OCc2ccc(-c3cc(OC)ccc3F)c(C3CCCC3(C)C)c2)c1F (single isomer, unassigned) [Example 100.1]
1000 to 10000 | COc1ccc(F)c(-c2ccc(COc3cccc([C@@H](CC(=O)O)c4ccon4)c3)cc2C2=CCCC2(C)C)c1 [Example 94.1, (3R)-3-(3-(((2-(5,5-Dimethyl-1-cyclopenten-1-yl)-2′-fluoro-5′-(methyloxy)-1,1′-biphenyl-4-yl)methyl)oxy)phenyl)-3-(3-isoxazolyl)propanoic acid]
1000 to 10000 | COc1cccc(-c2ccc(COc3cccc(CCC(=O)O)c3)cc2C)c1 [Example 1, 3-(3-(((2-Methyl-3′-(methyloxy)-1,1′-biphenyl-4-yl)methyl)oxy)phenyl)propanoic acid]
1000 to 10000 | COc1ccc(F)c(-c2ccc(COc3cncc(CCC(=O)O)c3)cc2C(C)(C)C)c1 [Example 96, 3-(5-(((2-(1,1-Dimethylethyl)-2′-fluoro-5′-(methyloxy)-1,1′-biphenyl-4-yl)methyl)oxy)-3-pyridinyl)propanoic acid]
> 10000 | CCCCOc1cc(COc2cccc([C@H](C)CC(=O)O)c2)ccc1-c1ccccc1OC (single isomer, unassigned) [Example 25, (3R)-3-(3-(((2-(Butyloxy)-2′-(methyloxy)-1,1′-biphenyl-4-yl)methyl)oxy)phenyl)butanoic acid or (3S)-3-(3-(((2-(butyloxy)-2′-(methyloxy)-1,1′-biphenyl-4-yl)methyl)oxy)phenyl)butanoic acid]
1000 to 10000 | COc1ccc(F)c(-c2ccc(COc3cccc(C(CC(=O)O)CC4CC4)c3)cc2CN2CCCCCC2)c1 (single isomer, unassigned) [Example 69.48, (3R)-3-(3-(((2-(1-Azepanylmethyl)-2′-fluoro-5′-(methyloxy)-1,1′-biphenyl-4-yl)methyl)oxy)phenyl)-4-cyclopropylbutanoic acid or (3S)-3-(3-(((2-(1-azepanylmethyl)-2′-fluoro-5′-(methyloxy)-1,1′-biphenyl-4-yl)methyl)oxy)phenyl)-4-cyclopropylbutanoic acid]
1000 to 10000 | CCC(CC(=O)O)c1cc(F)cc(OCc2ccc(-c3cc(OC)ccc3F)c(C3=CCCC3(C)C)c2)c1F (single isomer, unassigned) [Example 101.1, (3S)-3-(3-(((2-(5,5-Dimethyl-1-cyclopenten-1-yl)-2′-fluoro-5′-(methyloxy)-1,1′-biphenyl-4-yl)methyl)oxy)-2,5-difluorophenyl)pentanoic acid or (3R)-3-(3-(((2-(5,5-dimethyl-1-cyclopenten-1-yl)-2′-fluoro-5′-(methyloxy)-1,1′-biphenyl-4-yl)methyl)oxy)-2,5-difluorophenyl)pentanoic acid]

Structure (SMILES) | EC50 [nM]
COc1ccc(F)c(-c2ccc(COc3cccc([C@H](CC(=O)O)C4CC4)c3)cc2C(C)(C)C)c1 (single isomer, unassigned) [Example 10, (3R)-3-Cyclopropyl-3-(3-(((2-(1,1-dimethylethyl)-2′-fluoro-5′-(methyloxy)-1,1′-biphenyl-4-yl)methyl)oxy)phenyl)propanoic acid or (3S)-3-cyclopropyl-3-(3-(((2-(1,1-dimethylethyl)-2′-fluoro-5′-(methyloxy)-1,1′-biphenyl-4-yl)methyl)oxy)phenyl)propanoic acid] | 1000 to 10000
CCCCOc1cc(COc2cccc([C@H](CC(=O)O)C3CC3)c2)ccc1-c1cc(OC)ccc1F (single isomer, unassigned) [Example 11, (3R)-3-(3-(((2-(Butyloxy)-2′-fluoro-5′-(methyloxy)-1,1′-biphenyl-4-yl)methyl)oxy)phenyl)-3-cyclopropylpropanoic acid or (3S)-3-(3-(((2-(butyloxy)-2′-fluoro-5′-(methyloxy)-1,1′-biphenyl-4-yl)methyl)oxy)phenyl)-3-cyclopropylpropanoic acid] | 1000 to 10000
COc1ccc(F)c(-c2ccc(COc3cccc([C@H](CC(=O)O)C4CC4)c3)cc2C2=CCCC2(C)C)c1 (single isomer, unassigned) [Example 97.1, (3R)-3-Cyclopropyl-3-(3-(((2-(5,5-dimethyl-1-cyclopenten-1-yl)-2′-fluoro-5′-(methyloxy)-1,1′-biphenyl-4-yl)methyl)oxy)phenyl)propanoic acid or (3S)-3-cyclopropyl-3-(3-(((2-(5,5-dimethyl-1-cyclopenten-1-yl)-2′-fluoro-5′-(methyloxy)-1,1′-biphenyl-4-yl)methyl)oxy)phenyl)propanoic acid] | 1000 to 10000
CC1(C)CCC[C@H]1c1cc(COc2cccc([C@@H](CC(=O)O)C3CC3)c2)ccc1-c1cccc(OC(F)F)c1 (single isomer, unassigned) [Example 66.47] | 100 to 1000
